Measured values reported in patent US20200224168A1, “COMPOSITIONS AND METHODS FOR ENHANCING MATURATION STATES OF HEALTHY AND DISEASED CARDIOMYOCYTES” (University of Washington, priority 2017, published 2020).

How the values were obtained:
DMD mutant hPSC-CMs = assay: Primary drug screen: intracellular ATP (CellTiter Glo) viability after hypotonic stress; conditions: 18 hours compound incubation, then 12.5% normal osmolarity for 30 minutes, relative to DMSO control wells, concentration not stated (10^-8 to 10^-5 M tested)
[1] = system: mature DMD mutant hPSC-CMs; assay: nanoMEA beat rate variability (Mean ΔBI), mature diseased cells; format: cell-based, human
Method: Cells were exposed to various concentrations of nitrendipine or sildenafil citrate for seven days and measured their beat rate variability. […] Briefly, the ion permeable polymer Nafion (Sigma-Aldrich) was patterned onto commercial multi-well MEA plates (Axion Biosystems) via solvent-mediated capillary force lithography. Prior to cell seeding, control flat or nanoMEA Nafion surfaces were sterilized with UV-C light and then incubated for 6 hours at 37° C. with 5 μg/cm^2 human fibronectin (Life Technologies). hPSC-CMs were plated in droplet fashion at 25,000 cells per well of the MEA plate. Electrophysiological analysis of spontaneously beating cardiomyocytes was collected for 2 minutes using the AxIS software (Axion Biosystems). After raw data collection, the signal was filtered using a Butterworth band-pass filter and a 90 μV spike detection threshold. Field potential duration was automatically determined using a polynomial fit T-wave detected algorithm.

hPSC-CMs = assay: Immunofluorescent imaging, morphological and sarcomere analysis; format: cell-based, human; conditions: for cell area compared to Control: single maturation cue on flat surface, 3 weeks
Excerpt: For these studies, and all subsequent functional assays, the full ComboMat platform (Let7i+NP+T3) was compared to a viral vector Control (EV+Flat+No T3) and each maturation cue in isolation: NP (EV+NP+No T3), T3 (EV+Flat+T3), and Let7i (Let7i+Flat+No T3). […] Sarcomeres developed with a higher degree of directionality and order on NPs, resulting in more sarcomeres in register with one another (FIG. 2B).
[…] Samples were then permeabilized with 0.1% Triton X-100 (Sigma-Aldrich) in PBS and blocked with 5% goat serum. Cells were then incubated with mouse anti-α-actinin monoclonal antibody (1:1000, Sigma-Aldrich) in 1% goat serum overnight at 4° C. After washing with PBS, the samples were stained with Alexa-594 conjugated goat-anti-mouse secondary antibody (1:200, Invitrogen) as well as Alexafluo 488 labeled Phalloidin (1:200, Invitrogen). Nuclei counterstaining was performed with Vectashield containing DAPI (Vector Labs). A Nikon AIR confocal microscope with a Nikon CFI Plan Apo VC 60× water immersion objective was used to capture detailed immunofluorescent images for sarcomere analysis while a 20× air objective was used to obtain low-powered images of cells for measuring cell binucleation percentage. Cells from both objective powers were used to measure cell size. For morphological and sarcomere analysis, hPSC-CMs were plated at 10,000 cells/cm^2. […]
Immunofluorescent images were quantified for sarcomere alignment, pattern strength, and sarcomere length using a scanning gradient/Fourier transform script in MATLAB (Mathworks). Each image was broken into several small segments which were individually analyzed. Using a directional derivative, the image gradient for each segment was calculated to determine the local alignment of sarcomeres. The pattern strength was then determined by calculating the maximum peaks of one-dimensional Fourier transforms in the direction of the gradient. The lengths of sarcomeres were calculated by measuring the intensity profiles of the sarcomeres along this same gradient direction. […]

DMD patients = conditions: cited from earlier work
[2] = system: cells exposed to Control conditions or Normal hPSC-CMs exposed to the ComboMat platform; assay: nanoMEA beat rate variability, immature or healthy cells; format: cell-based, human; conditions: seven days
Method: Cells were exposed to various concentrations of nitrendipine or sildenafil citrate for seven days and measured their beat rate variability. […] Briefly, the ion permeable polymer Nafion (Sigma-Aldrich) was patterned onto commercial multi-well MEA plates (Axion Biosystems) via solvent-mediated capillary force lithography. Prior to cell seeding, control flat or nanoMEA Nafion surfaces were sterilized with UV-C light and then incubated for 6 hours at 37° C. with 5 μg/cm^2 human fibronectin (Life Technologies). hPSC-CMs were plated in droplet fashion at 25,000 cells per well of the MEA plate. Electrophysiological analysis of spontaneously beating cardiomyocytes was collected for 2 minutes using the AxIS software (Axion Biosystems). After raw data collection, the signal was filtered using a Butterworth band-pass filter and a 90 μV spike detection threshold. Field potential duration was automatically determined using a polynomial fit T-wave detected algorithm. Beat interval analysis on 30 consecutive beats was performed as previously published^26 (see Table 3).

mdx mouse = conditions: cited from earlier work

CN1CCc2c(c3ccccc3n2Cc2ccccc2)C1.CN1CCc2c(c3ccccc3n2Cc2ccccc2)C1.O=S(=O)(O)c1cccc2c(S(=O)(=O)O)cccc12 [MEBHYDROLIN NAPHTHALENESULFONATE]
Average of % Viability (DMD mutant hPSC-CMs): 172.81 ± 39.86%

CCOC(=O)C1=C(C)NC(C)=C(C(=O)OC)C1c1cccc([N+](=O)[O-])c1 (centres unmarked) [NITRENDIPINE]
effect on spontaneous beating ([1]; doses higher than 1 μM, seven days): ceased spontaneous beating | time for benefits to wash out after removal from cell culture medium ([1]; mature DMD mutant hPSC-CMs, Mean ΔBI after washout): ≤ 48 h | beat rate variability level restored ([1]; mature DMD mutant hPSC-CMs, doses up to 1 μM, seven days): < 50 ms

N[C@@H](Cc1cc(I)c(Oc2ccc(O)c(I)c2)c(I)c1)C(=O)O [T3, Triiodothyronine]
impact of long-term exposure on sarcomere development and beat rate variability (hPSC-CMs; long-term T3 exposure (7, 14, 21 days), preliminary results): negative impact | cell area compared to Control (hPSC-CMs): significantly larger

CCCc1nn(C)c2c(=O)[nH]c(-c3cc(S(=O)(=O)N4CCN(C)CC4)ccc3OCC)nc12 [sildenafil]
cardiac symptoms in DMD patients (clinical trial, terminated early) (DMD patients): exacerbated cardiac symptoms | Mean ΔBI (beat rate variability) compared to DMSO carrier control ([1]; mature (ComboMat) DMD mutant hPSC-CMs, seven days exposure, various concentrations): no effect | impact on beat rate variability [2]: Neither nitrendipine nor sildenafil had a significant impact | cardiac dysfunction in the mdx mouse (mdx mouse): showed promise in alleviating cardiac dysfunction

Let7i: Let-7i miRNA (UGAGGUAGUAGUUUGUGCU duplex) overexpressed from a lentiviral vector (listed as Homo sapiens)
cell area compared to Control (hPSC-CMs): significantly larger
